Reference: US12370212B2, “Intradialytic use of sodium thiosulfate” (Hope Medical Enterprises, Inc., priority 2017, dated 2025)
Like-named read-outs stand apart in the source and are kept apart here.

Key:
[1] = 60 mg sample, 2 mL of 0.1 N hydrochloric acid, 80° C., approximately 24 hours
Protocol: (§1) Concentration of thiosulfate in samples was assayed by ion chromatography. The ion chromatograph was equipped with an electrochemical conductivity detector and a Dionex IonPacAS12A analytical column. The sodium thiosulfate content in the samples tested was calculated against an external sodium thiosulfate standard. USP Sodium Thiosulfate Reference Standard (Item Number 1615107) was the testing standard (United States Pharmacopeia. Rockville, Maryland).

[2] = for Sulfate Concentration / Sulfide Concentration / Sulfite Concentration: degradation product, dialysate bicarbonate concentrate + sodium thiosulfate; for Measured Sodium Thiosulfate Concentration: dialysate bicarbonate concentrate, room temperature, expected 1.61 mg/mL
Protocol: as §1
Example 2 was performed to determine the stability of sodium thiosulfate in dialysate bicarbonate concentrate solution. At room temperature, 12500 mg sodium thiosulfate (50 mL of 250 mg/mL solution) was added to 7,700 mL of dialysate bicarbonate concentrate solution. The thiosulfate concentration of the dialysate bicarbonate concentrate solution was analyzed by ion chromatography 1) before addition of sodium thiosulfate; 2) 5 minutes after the addition of sodium thiosulfate; and 3) 2 hours after the addition of sodium thiosulfate.

[3] = during the first hour of hemodialysis; cited from earlier work
[4] = for Thiosulfate Concentration After the Addition of Sodium Thiosulfate (Time = 60 Min): average of two samples
Protocol: as §1
Dialysate bicarbonate concentrate solution was prepared by adding 1 package of Centrisol© MB-330 Series Sodium Bicarbonate Concentrate powder (650 g) to 7.7 liters of purified water.
The hemodialysis machine mixed the bicarbonate concentrate solution and acid concentrate solution with the dilution ratio of 1 part of an acid concentrate solution, 1.72 parts of a bicarbonate concentrate solution, and 42.38 parts of purified water. The machine was primed in bypass mode (dialysate and ultrafiltration rates set at zero) using normal saline. After priming, the hemodialysis machine was run in “Therapy Mode” with the following settings: blood flow rate 300 mL/minute, dialysate flow rate 600 mL/minute, ultrafiltration rate 0 mL/minute.
An aqueous solution of sodium thiosulfate was prepared by dissolving 25 mg of sodium thiosulfate in 1 liter of purified water. […] This valve was placed in the dialysate tubing approximately eight inches upstream of the dialyzer (pre-filter). Two sampling ports were placed four inches upstream (pre-dialyzer sampling port) and ten inches downstream (post-dialyzer sampling port) from the dialyzer to collect samples of dialysate for […] assay by ion chromatography.
The infusion pump infused the sodium thiosulfate solution into the tubing through the valve at a rate of 250 mL/hour (4.16 mL/minute).
Normal saline flowed into the dialyzer at a rate of 300 mL/minute from the Arterial line and exited the dialyzer through the Venous line. Samples of saline were collected from the venous side of the dialyzer.

[5] = mixed dialysate exiting hemodialysis machine; expected 0.0608 mg/L
Protocol: as §1
The machine was primed in bypass mode (dialysate and ultrafiltration rates set at zero) using normal saline.

[6] = material safety data sheet; cited from earlier work

With O=S(O)(O)=S [Sodium Thiosulfate, sodium thiosulfate] the “percentage of thiosulfate degradation” value [1] was 28.6%, the “Sulfate Concentration” value ([2]; after 5 minutes) was 4.4 µg/mL and the “Sulfide Concentration” value ([2]; after 5 minutes) was under 2.5 µg/mL. For the same compound, the “Sulfite Concentration” value ([2]; after 5 minutes) was 5.9 µg/mL, the “Sulfate Concentration” value ([2]; after 2 hours) was 4.3 µg/mL and the “Sulfide Concentration” value ([2]; after 2 hours) was under 2.5 µg/mL. The “Sulfite Concentration” value ([2]; after 2 hours) was 5.4 µg/mL, the “Measured Sodium Thiosulfate Concentration” value ([2]; after 5 minutes) was 1.65 mg/mL and the “Measured Sodium Thiosulfate Concentration” value ([2]; after 2 hours) was 1.65 mg/mL. For the same compound, the “stability in dialysate bicarbonate concentrate solution (in words)” value ([2]; over 2 hours) was “stable”, the “decline of concentration of thiosulfate in the plasma” value [3] was “over 60%” and the “passage along or through dialyzer (in words)” value ([4]; added to unspiked dialysate between hemodialysis machine and dialyzer membrane) was “can either pass along or pass through a dialyzer”. The “Thiosulfate Concentration After the Addition of Sodium Thiosulfate (Time = 60 Min)” value ([4]; dialysate after dialyzer) was 2.20 µM, the “Thiosulfate Concentration After the Addition of Sodium Thiosulfate (Time = 60 Min)” value ([4]; dialysate before dialyzer) was 4.04 µM and the “Thiosulfate Concentration After the Addition of Sodium Thiosulfate (Time = 60 Min)” value ([4]; saline solution after dialyzer (venous side)) was 1.62 µM. For the same compound, the “Thiosulfate Concentration by Assay” value [5] was 0.001824 and the “behaviour on contact with acid (in words)” value [6] was “decomposes on contact with acid”.
